# Laboratory results taken from ChEMBL document CHEMBL1138452, “1-Sulfonylindazoles as potent and selective 5-HT6 ligands” (Bioorg Med Chem Lett, 2009).
# The source made the active and inactive calls. No cut-off for these calls is given here.
# Assays:
# [1] = target: T1, 5-hydroxytryptamine receptor 6 (Homo sapiens, UniProt P50406); test: Agonist activity at human 5HT6 receptor expressed in CHOK1 cells assessed as increase in 5HT-induced intracellular calcium level at 0.1 to 10 uM by FLIPR assay; type: functional, cell-based; conditions: CHO-K1
# [2] = Metabolic stability in human microsomes assessed as half life; type: ADME, Microsome
# [3] = Metabolic stability in rat microsomes assessed as half life; type: ADME, Microsome
# [4] = target: Cytochrome P450 3A4 (Homo sapiens, UniProt P08684); test: Inhibition of CYP3A4; type: ADME
# [5] = target: Cytochrome P450 2D6 (Homo sapiens, UniProt P10635); test: Inhibition of CYP2D6; type: ADME
# [6] = target: Cytochrome P450 2C9 (Homo sapiens, UniProt P11712); test: Inhibition of CYP2C9; type: ADME
# [7] = Oral bioavailability in Sprague-Dawley rat at 10 mg/kg; type: ADME, organism-based; conditions: in vivo
# [8] = target: T1, 5-hydroxytryptamine receptor 6; test: Antagonist activity at human cloned 5HT6 receptor expressed in human HeLa cells assessed as blockage of 5-HT-stimulated cAMP formation; type: functional, cell-based
# [9] = target: T2, 5-hydroxytryptamine receptor 1A (Homo sapiens, UniProt P08908); test: Binding affinity to 5HT1a receptor
# T2 sequence (P08908 whole entry): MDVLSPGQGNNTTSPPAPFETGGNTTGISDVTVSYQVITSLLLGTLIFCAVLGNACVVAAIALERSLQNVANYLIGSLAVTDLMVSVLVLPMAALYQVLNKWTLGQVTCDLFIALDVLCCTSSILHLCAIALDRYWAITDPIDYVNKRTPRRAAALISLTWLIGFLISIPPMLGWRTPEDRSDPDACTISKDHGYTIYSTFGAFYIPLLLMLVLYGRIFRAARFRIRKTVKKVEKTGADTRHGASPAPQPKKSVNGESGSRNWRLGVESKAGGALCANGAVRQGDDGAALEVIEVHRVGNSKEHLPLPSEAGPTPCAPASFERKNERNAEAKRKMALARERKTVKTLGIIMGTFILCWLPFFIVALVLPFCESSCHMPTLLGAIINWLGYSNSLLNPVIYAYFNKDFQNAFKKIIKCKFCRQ
# [10] = target: 5-hydroxytryptamine receptor 1B (Homo sapiens, UniProt P28222); test: Binding affinity to 5HT1b receptor
# [11] = target: 5-hydroxytryptamine receptor 1D (Homo sapiens, UniProt P28221); test: Binding affinity to 5HT1d receptor
# [12] = target: 5-hydroxytryptamine receptor 2B (Homo sapiens, UniProt P41595); test: Binding affinity to 5HT2b receptor
# [13] = target: T3, 5-hydroxytryptamine receptor 2C (Homo sapiens, UniProt P28335); test: Binding affinity to 5HT2c receptor
# T3 sequence (P28335 whole entry): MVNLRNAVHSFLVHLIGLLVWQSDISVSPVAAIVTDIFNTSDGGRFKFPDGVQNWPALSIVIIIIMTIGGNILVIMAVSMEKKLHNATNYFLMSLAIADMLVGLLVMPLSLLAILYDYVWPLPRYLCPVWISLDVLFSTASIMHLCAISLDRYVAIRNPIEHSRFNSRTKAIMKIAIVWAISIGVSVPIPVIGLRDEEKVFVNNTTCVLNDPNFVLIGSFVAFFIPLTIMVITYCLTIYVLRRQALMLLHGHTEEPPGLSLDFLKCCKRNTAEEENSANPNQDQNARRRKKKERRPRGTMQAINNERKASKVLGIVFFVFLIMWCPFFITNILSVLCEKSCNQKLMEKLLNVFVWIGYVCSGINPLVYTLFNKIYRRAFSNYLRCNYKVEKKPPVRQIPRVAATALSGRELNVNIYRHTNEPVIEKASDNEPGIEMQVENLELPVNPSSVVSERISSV
# [14] = target: 5-hydroxytryptamine receptor 7 (Homo sapiens, UniProt P34969); test: Binding affinity to 5HT7 receptor
# [15] = target: T4, Alpha-2A adrenergic receptor (Homo sapiens, UniProt P08913); test: Binding affinity to adrenergic alpha2A receptor
# T4 sequence (P08913 whole entry): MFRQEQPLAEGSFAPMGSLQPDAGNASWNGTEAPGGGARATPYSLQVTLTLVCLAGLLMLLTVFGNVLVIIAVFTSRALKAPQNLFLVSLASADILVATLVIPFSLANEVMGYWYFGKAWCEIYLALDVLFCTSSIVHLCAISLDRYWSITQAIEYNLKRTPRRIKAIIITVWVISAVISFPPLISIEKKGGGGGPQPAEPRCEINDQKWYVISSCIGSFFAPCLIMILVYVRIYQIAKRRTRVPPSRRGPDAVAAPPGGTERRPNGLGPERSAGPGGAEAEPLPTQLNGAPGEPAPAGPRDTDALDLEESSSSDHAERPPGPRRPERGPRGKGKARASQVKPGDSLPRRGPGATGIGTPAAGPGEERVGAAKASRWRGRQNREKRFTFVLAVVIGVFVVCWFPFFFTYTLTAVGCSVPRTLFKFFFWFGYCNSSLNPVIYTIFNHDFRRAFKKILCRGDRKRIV
# [16] = target: D(2) dopamine receptor (Homo sapiens, UniProt P14416); test: Binding affinity to dopamine D2 receptor
# [17] = target: T1, 5-hydroxytryptamine receptor 6; test: Displacement of [3H]LSD from human cloned 5HT6 receptor expressed in human HeLa cells; type: cell-based
# [18] = test system: Rattus norvegicus; test: Cognitive enhancing effect in Sprague-Dawley rat assessed as reversal of 24 hrs delay-induced retention deficit behavior at 10 mg/kp, po by novel object recognition assay; type: functional, organism-based
# Sequence of Cytochrome P450 2C9 (P11712 whole entry): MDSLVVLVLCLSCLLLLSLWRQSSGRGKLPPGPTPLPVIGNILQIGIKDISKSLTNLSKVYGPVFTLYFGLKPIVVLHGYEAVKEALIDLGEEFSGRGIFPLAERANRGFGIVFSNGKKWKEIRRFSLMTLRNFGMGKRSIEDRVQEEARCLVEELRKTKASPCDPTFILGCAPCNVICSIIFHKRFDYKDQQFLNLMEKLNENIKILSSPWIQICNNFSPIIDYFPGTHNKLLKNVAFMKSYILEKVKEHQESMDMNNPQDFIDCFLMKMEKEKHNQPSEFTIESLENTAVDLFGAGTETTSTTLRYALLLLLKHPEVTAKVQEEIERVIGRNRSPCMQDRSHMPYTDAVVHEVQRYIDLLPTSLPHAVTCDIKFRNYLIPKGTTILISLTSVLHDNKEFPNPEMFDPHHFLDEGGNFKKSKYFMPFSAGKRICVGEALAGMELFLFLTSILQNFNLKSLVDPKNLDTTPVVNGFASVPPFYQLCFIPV
# Sequence of Cytochrome P450 3A4 (P08684 whole entry): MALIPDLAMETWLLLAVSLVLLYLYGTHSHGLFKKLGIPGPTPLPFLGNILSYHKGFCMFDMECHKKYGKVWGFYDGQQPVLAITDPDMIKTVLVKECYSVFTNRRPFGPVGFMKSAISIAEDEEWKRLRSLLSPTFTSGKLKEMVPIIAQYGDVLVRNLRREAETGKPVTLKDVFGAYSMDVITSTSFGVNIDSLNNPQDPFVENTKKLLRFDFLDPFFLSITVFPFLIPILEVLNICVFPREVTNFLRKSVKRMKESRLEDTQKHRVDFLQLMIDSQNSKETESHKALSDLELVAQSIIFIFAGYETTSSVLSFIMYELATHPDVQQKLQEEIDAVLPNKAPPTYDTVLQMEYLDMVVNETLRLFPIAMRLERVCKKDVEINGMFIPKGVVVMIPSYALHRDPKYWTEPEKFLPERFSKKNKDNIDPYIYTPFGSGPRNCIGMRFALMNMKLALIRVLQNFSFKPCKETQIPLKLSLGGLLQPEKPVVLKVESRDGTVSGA
# Sequence of 5-hydroxytryptamine receptor 1D (P28221 whole entry): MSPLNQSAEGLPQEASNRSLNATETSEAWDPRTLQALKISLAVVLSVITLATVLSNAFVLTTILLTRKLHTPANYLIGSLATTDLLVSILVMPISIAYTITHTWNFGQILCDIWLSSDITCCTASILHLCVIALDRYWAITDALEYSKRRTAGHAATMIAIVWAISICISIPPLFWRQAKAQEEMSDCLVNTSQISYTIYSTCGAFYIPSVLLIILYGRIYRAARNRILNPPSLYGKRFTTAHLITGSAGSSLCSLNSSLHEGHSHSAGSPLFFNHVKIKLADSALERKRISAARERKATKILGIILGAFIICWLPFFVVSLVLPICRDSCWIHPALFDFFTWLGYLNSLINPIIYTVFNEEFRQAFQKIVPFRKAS
# T1 sequence (P50406 whole entry): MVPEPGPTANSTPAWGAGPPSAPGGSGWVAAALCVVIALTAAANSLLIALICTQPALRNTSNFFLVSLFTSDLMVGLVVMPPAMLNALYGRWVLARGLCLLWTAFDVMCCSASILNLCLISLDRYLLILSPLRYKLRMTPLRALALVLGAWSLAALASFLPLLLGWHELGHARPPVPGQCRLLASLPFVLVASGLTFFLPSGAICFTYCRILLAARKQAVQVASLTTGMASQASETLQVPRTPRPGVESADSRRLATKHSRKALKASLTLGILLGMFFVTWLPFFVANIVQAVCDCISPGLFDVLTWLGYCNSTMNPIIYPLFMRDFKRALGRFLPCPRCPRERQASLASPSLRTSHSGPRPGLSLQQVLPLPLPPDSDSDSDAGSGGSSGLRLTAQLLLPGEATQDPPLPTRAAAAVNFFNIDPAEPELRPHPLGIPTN
# Sequence of 5-hydroxytryptamine receptor 1B (P28222 whole entry): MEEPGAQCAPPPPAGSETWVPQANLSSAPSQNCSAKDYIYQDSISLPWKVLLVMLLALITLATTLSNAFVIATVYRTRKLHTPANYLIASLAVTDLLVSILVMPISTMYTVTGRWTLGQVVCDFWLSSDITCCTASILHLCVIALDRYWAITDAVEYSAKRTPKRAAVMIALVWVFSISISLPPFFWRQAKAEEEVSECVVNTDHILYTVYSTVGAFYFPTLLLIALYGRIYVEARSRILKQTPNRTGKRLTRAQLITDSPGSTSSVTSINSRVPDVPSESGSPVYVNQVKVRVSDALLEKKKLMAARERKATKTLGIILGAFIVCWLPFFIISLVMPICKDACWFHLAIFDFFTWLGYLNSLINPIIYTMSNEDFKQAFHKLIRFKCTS
# Sequence of 5-hydroxytryptamine receptor 7 (P34969 whole entry): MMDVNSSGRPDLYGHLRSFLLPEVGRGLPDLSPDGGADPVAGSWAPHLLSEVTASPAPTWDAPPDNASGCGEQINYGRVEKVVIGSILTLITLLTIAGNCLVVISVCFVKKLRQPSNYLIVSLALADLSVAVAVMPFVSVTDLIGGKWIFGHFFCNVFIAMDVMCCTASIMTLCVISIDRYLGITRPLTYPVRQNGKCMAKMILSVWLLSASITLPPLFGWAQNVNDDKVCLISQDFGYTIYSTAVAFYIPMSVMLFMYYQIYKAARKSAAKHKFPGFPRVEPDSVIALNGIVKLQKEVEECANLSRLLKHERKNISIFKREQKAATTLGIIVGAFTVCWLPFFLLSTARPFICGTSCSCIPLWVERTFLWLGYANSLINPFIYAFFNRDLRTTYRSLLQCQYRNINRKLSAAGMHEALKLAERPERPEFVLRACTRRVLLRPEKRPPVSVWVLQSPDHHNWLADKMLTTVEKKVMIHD
# Sequence of 5-hydroxytryptamine receptor 2B (P41595 whole entry): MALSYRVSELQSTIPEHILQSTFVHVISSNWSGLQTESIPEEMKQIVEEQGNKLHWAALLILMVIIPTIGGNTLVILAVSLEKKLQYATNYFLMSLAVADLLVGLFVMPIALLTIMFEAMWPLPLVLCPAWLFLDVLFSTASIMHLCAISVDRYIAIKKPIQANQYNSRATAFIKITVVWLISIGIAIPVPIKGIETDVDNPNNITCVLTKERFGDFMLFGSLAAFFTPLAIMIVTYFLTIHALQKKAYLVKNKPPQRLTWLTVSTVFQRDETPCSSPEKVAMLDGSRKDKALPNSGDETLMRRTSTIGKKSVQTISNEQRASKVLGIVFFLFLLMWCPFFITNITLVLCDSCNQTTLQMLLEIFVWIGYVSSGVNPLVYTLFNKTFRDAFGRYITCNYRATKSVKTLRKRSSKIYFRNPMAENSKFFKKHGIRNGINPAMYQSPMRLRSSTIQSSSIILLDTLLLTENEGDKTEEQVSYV
# Sequence of D(2) dopamine receptor (P14416 whole entry): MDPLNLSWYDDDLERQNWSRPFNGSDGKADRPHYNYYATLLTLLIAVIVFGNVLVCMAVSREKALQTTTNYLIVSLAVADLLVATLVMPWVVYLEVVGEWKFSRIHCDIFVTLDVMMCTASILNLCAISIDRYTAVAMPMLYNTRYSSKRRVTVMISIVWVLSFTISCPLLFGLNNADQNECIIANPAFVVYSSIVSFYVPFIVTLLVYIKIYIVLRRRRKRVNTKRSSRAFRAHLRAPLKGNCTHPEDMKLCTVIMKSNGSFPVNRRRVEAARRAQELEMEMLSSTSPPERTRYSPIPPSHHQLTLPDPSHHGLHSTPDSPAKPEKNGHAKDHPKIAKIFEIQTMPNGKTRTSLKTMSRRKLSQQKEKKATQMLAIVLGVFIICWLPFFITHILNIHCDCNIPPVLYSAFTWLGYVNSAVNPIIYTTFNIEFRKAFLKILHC
# Sequence of Cytochrome P450 2D6 (P10635 whole entry): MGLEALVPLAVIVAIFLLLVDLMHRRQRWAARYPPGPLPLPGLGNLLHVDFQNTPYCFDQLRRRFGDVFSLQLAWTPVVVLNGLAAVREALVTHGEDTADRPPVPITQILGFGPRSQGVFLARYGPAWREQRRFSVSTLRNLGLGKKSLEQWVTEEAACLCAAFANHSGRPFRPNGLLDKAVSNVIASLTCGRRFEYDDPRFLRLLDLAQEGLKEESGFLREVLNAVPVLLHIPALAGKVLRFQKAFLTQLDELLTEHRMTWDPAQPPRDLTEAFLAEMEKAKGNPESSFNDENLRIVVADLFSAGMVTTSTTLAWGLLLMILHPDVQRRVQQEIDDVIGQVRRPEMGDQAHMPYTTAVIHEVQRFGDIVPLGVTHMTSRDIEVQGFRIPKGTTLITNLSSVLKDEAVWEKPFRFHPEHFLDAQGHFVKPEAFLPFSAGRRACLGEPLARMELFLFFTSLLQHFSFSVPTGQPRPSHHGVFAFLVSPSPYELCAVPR
structure (smiles),measurement,setting,value
O=C(Nc1ccc2cnn(S(=O)(=O)c3cccc4ccccc34)c2c1)C1CCNCC1,Activity,[1],inactive
same,half-life,[2],> 30 min
same,half-life,[3],11 min
same,IC50,[4],61 µM
same,IC50,[5],350 µM
same,IC50,[6],370 µM
same,bioavailability,[7],5%
same,IC50,[8],8 nM
same,Imax,[8],100%
same,Ki,[9],8.5 µM
same,Ki,[10],> 2000 nM
same,Ki,[11],> 2000 nM
same,Ki,[12],130 nM
same,Ki,[13],> 2000 nM
same,Ki,[14],6.9 µM
same,Ki,[15],> 2000 nM
same,Ki,[16],> 2000 nM
CNCCC(=O)Nc1ccc2cnn(S(=O)(=O)c3cccc4ccccc34)c2c1,IC50,[8],26 nM
same,Imax,[8],100%
O=C(CCN1CCCCC1)Nc1ccc2cnn(S(=O)(=O)c3cccc4ccccc34)c2c1,IC50,[8],170 nM
same,Imax,[8],100%
O=C(Nc1ccc2cnn(S(=O)(=O)c3cccc4ccccc34)c2c1)[C@@H]1CCCNC1,Ki,[17],4 nM
same,Activity,[8],Active
NCCC(=O)Nc1ccc2cnn(S(=O)(=O)c3cccc4ccccc34)c2c1,Activity,[1],inactive
O=C(Nc1ccc2cnn(S(=O)(=O)c3cccc4ccccc34)c2c1)C1CCCNC1 (racemic),Activity,[1],inactive
same,half-life,[2],> 30 min
same,half-life,[3],8 min
same,IC50,[4],260 µM
same,IC50,[5],110 µM
same,IC50,[6],140 µM
same,bioavailability,[7],24%
same,Activity,[18],Active
same,Ki,[17],1.3 nM
same,IC50,[8],10 nM
same,Imax,[8],100%
same,Ki,[9],5.6 µM
same,Ki,[10],1800 nM
same,Ki,[11],> 2000 nM
same,Ki,[12],174 nM
same,Ki,[13],> 2000 nM
same,Ki,[14],5.8 µM
same,Ki,[15],> 2000 nM
same,Ki,[16],> 2000 nM
O=C(Nc1ccc2cnn(S(=O)(=O)c3cccc4ccccc34)c2c1)[C@H]1CCCNC1,Ki,[17],3.2 nM
same,Activity,[8],Active
CN(C)CCC(=O)Nc1ccc2cnn(S(=O)(=O)c3cccc4ccccc34)c2c1,IC50,[8],53 nM
same,Imax,[8],100%
NCCC(=O)Nc1cccc2c1cnn2S(=O)(=O)c1cccc2ccccc12,half-life,[2],> 30 min
same,half-life,[3],28 min
same,IC50,[4],30 µM
same,IC50,[5],200 µM
same,IC50,[6],7 µM
same,bioavailability,[7],7%
same,IC50,[8],11 nM
same,Imax,[8],100%
same,Ki,[9],6.4 µM
same,Ki,[10],> 2000 nM
same,Ki,[11],> 2000 nM
same,Ki,[12],155 nM
same,Ki,[13],> 2000 nM
same,Ki,[14],5.1 µM
same,Ki,[15],> 2000 nM
same,Ki,[16],> 2000 nM
O=S(=O)(c1cccc2ccccc12)n1ncc2ccc(NCC3CCNCC3)cc21,Ki,[17],18 nM
CCN(CC)CCC(=O)Nc1ccc2cnn(S(=O)(=O)c3cccc4ccccc34)c2c1,IC50,[8],260 nM
same,Imax,[8],100%
